Data taken from article PMC6943434, “Novel Homo-Bivalent and Polyvalent Compounds Based on Ligustrazine and Heterocyclic Ring as Anticancer Agents” (Molecules, 2019).
Like-named read-outs stand apart in the source and are kept apart here.

Legend:
[1] = tested on: Hep G2 (hepatocarcinoma cell line); experiment: MTT cell viability assay, Hep G2; assay type: cell-based; details: Homo sapiens, HepG2, 48 h, read-out: Antiproliferative Activity IC50 ± SEM, Hep G2
Method: (§1) The tested cells were obtained from Shanghai Institute of Biochemistry and Cell Biology of the Chinese Academy of Sciences (Shanghai, China). HeLa and Hep G2 cell lines were cultured in Dulbecco’s modified Eagle’s medium (DMEM; gibco, Life Technologies, Carlsbad, CA, USA) supplemented with 10% fetal bovine serum (FBS; Biological Industries), 100 U/mL penicillin-streptomycin (PS; gibco, Life Technologies, Carlsbad, CA, USA). MCF-7 and A549 cell lines were maintained in RPMI-1640 media (gibco, Life Technologies, Carlsbad, CA, USA) supplemented with 10% FBS and 100 U/mL PS. FaDu cell lines were cultured in minimum essential medium (MEM; Gibco, Life Technologies, Carlsbad, CA, USA) supplemented with 10% FBS and 100 U/mL PS. MCF 10A cell lines were maintained in Mammary MEGM kit (Lonza/Clonetics) supplemented with 100 ng/mL cholera toxin (Sigma, Shanghai, China). Cell lines were grown at 37 °C in a humidified atmosphere of 5% CO2.
(§2) The growth-inhibitory effects against HeLa, Hep G2, MCF-7, FaDu, and A549 cancer cells and normal cell lines MCF 10A were determined by MTT assay. […] Cells were seeded in 96 well plates at a density of 1 × 10^4 cells per well and incubated for 24 h at 37 °C in a humidified atmosphere of 5% CO2. The cells were then incubated with various concentrations of drugs for 48 h in a 5% CO2 incubator at 37 °C. After treatment with 1 mg/mL 3-(4,5-dimethylthiazol-2-yl)-2,5-diphenyltetrazolium bromide (MTT) solution for 4 h, the formazan crystals were dissolved in 100 µL DMSO in each well. Plates were read on a microplate reader (Thermo Varioskan Flash 3001) at 490 nm. The experiment was performed in triplicate. The inhibitory concentration at 50% (IC50) was calculated based on concentration-inhibition relationships via regression using SPSS software (Version 17.0).

[2] = tested on: HeLa (cervical cancer cell line); experiment: MTT cell viability assay, HeLa; assay type: cell-based; details: Homo sapiens, 48 h, read-out: Antiproliferative Activity IC50 ± SEM, HeLa
Method: as §1, §2

[3] = tested on: A549 (epithelial cancer cell line); experiment: MTT cell viability assay, A549; assay type: cell-based; details: Homo sapiens, 48 h, read-out: Antiproliferative Activity IC50 ± SEM, A549
Method: as §1, §2

[4] = tested on: FaDu (head and neck squamous carcinoma cell line); experiment: MTT cell viability assay, FaDu; assay type: cell-based, human; details: for SI: selectivity index: SI = IC50 (MCF 10A)/IC50 (FaDu); for IC50: 48 h, MTT
Method: as §1, §2

[5] = tested on: MCF-7 (breast cancer cell line); experiment: MTT cell viability assay, MCF-7; assay type: cell-based; details: Homo sapiens, MCF7, 48 h, read-out: Antiproliferative Activity IC50 ± SEM, MCF-7
Method: as §1, §2

[6] = tested on: MCF 10A (normal mammary epithelial cell); experiment: MTT cell viability assay, MCF 10A; assay type: cell-based; details: Homo sapiens, 48 h, normal cells, read-out: Antiproliferative Activity IC50 ± SEM, MCF 10A
[7] = Homo sapiens, FaDu, read-out: Antiproliferative Activity IC50 ± SEM, FaDu
[8] = read-out: Antiproliferative Activity IC50 ± SEM, FaDu

Compound | IC50 [1] | IC50 [2] | IC50 [3] | SI: selectivity index [4] | IC50 [5] | IC50 [6] | IC50 [4, 7] | IC50 [4, 8] | IC50 ([4]; Homo sapiens, FaDu, values in nM, read-out: IC50 in FaDu cells)
O=C(NCCCCCCCCCCNC(=O)c1cccnc1)c1cccnc1 [Compound 10e, N,N′-(Decane-1,10-Diyl)Dinicotinamide] | > 100 µM | > 100 µM | 2.94 ± 0.25 µM | 154.40 | > 100 µM | 38.6 ± 2.48 µM | – | – | –
O=C(NCCCCCCCCCCNC(=O)c1ccccc1)c1ccccc1 [Compound 11e, N,N′-(Decane-1,10-Diyl)Dibenzamide] | > 100 µM | > 100 µM | 64.3 ± 3.46 µM | 161.08 | > 100 µM | 80.5 ± 7.6 µM | < 1000 nM | 500 ± 60 nM | –
O=C(NCCCCCCCCCCNC(=O)c1ccc2ccccc2c1)c1ccc2ccccc2c1 [Compound 12e, N,N′-(Decane-1,10-Diyl)Bis(2-Naphthamide)] | > 100 µM | > 100 µM | 8.77 ± 0.47 µM | >75.19 | > 100 µM | > 100 µM | 1330 ± 70 nM | – | –
O=C(NCCCCCCCCCCNC(=O)c1ccncc1)c1ccncc1 [Compound 13e, N,N′-(Decane-1,10-Diyl)Diisonicotinamide] | > 100 µM | > 100 µM | > 100 µM | >2.07 | > 100 µM | > 100 µM | 48300 ± 3170 nM | – | –
O=C(NCCCCCCCCCCNC(=O)c1ccco1)c1ccco1 [Compound 14e, N,N′-(Decane-1,10-Diyl)Bis(Furan-2-Carboxamide)] | 97.8 ± 1.55 µM | > 100 µM | 44.37 ± 0.29 µM | 3.13 | > 100 µM | 19.8 ± 1.41 µM | 6330 ± 650 nM | – | –
O=C(NCCCCCCCCCCNC(=O)c1ccccn1)c1ccccn1 [Compound 15e, N,N′-(Decane-1,10-Diyl)Dipicolinamide] | 26.3 ± 5.36 µM | 37.7 ± 4.32 µM | 23.08 ± 0.12 µM | 6.18 | 21.5 ± 1.47 µM | 54.6 ± 5.92 µM | 8850 ± 450 nM | – | –
O=C(NCCCCCCCCCCNC(=O)c1cnccn1)c1cnccn1 [Compound 16e, N,N′-(Decane-1,10-Diyl)Bis(Pyrazine-2-Carboxamide)] | > 100 µM | > 100 µM | > 100 µM | – | > 100 µM | > 100 µM | 88100 ± 1370 nM | – | –
O=C(NCCCCCCCCCCNC(=O)c1cnc2ccccc2c1)c1cnc2ccccc2c1 [Compound 17e, N,N′-(Decane-1,10-Diyl)Bis(Quinoline-3-Carboxamide)] | > 20 µM | > 20 µM | > 20 µM | >84.75 | > 20 µM | > 20 µM | – | – | –
O=C(NCCCCCCCCCCNC(=O)c1ccc2ncccc2c1)c1ccc2ncccc2c1 [Compound 18e, N,N′-(Decane-1,10-Diyl)Bis(Quinoline-6-Carboxamide)] | > 20 µM | > 20 µM | > 20 µM | >28.69 | > 20 µM | > 20 µM | < 1000 nM | 697 ± 21 nM | –
O=C(NCCCCCCCCCCNC(=O)c1ccc2nc[nH]c2c1)c1ccc2nc[nH]c2c1 [Compound 19e, N,N′-(Decane-1,10-Diyl)Bis(1H-Benzo[d]Imidazole-6-Carboxamide)] | > 20 µM | > 20 µM | > 20 µM | >2.29 | > 20 µM | > 20 µM | 8740 ± 440 nM | – | –
O=C(NCCCCCCCCCCNC(=O)c1cc2ccccc2oc1=O)c1cc2ccccc2oc1=O [Compound 20e, N,N′-(Decane-1,10-Diyl)Bis(2-Oxo-2H-Chromene-3-Carboxamide)] | > 20 µM | > 20 µM | > 20 µM | – | > 20 µM | > 20 µM | > 20000 nM | – | –
O=C(NCCCCCCCCCCNC(=O)c1cc2ccccc2o1)c1cc2ccccc2o1 [Compound 21e, N,N′-(Decane-1,10-Diyl)Bis(Benzofuran-2-Carboxamide)] | > 20 µM | > 20 µM | > 20 µM | >30.08 | > 20 µM | > 20 µM | < 1000 nM | 665 ± 28 nM | 697 nM
O=C(NCCCCCCCCCCNC(=O)c1cc2ccccc2s1)c1cc2ccccc2s1 [Compound 22e, N,N′-(Decane-1,10-Diyl)Bis(Benzo[b]Thiophene-2-Carboxamide)] | > 20 µM | > 20 µM | > 20 µM | >1000 | > 20 µM | > 20 µM | – | – | –
Cn1cc(C(=O)NCCCCCCCCCCNC(=O)c2cn(C)c3ccccc23)c2ccccc21 [Compound 23e, N,N′-(Decane-1,10-Diyl)Bis(1-Methyl-1H-Indole-3-Carboxamide)] | > 20 µM | > 20 µM | > 20 µM | >31.35 | > 20 µM | > 20 µM | < 1000 nM | 638 ± 89 nM | –
O=C(NCCCCCCCCCCNC(=O)c1ccc2cc[nH]c2c1)c1ccc2cc[nH]c2c1 [Compound 24e, N,N′-(Decane-1,10-Diyl)Bis(1H-Indole-6-Carboxamide)] | > 20 µM | > 20 µM | > 20 µM | >3.78 | > 20 µM | > 20 µM | 5300 ± 366 nM | – | –
O=C(/C=C/c1ccc(Cl)cc1)NCCCCCCCCCCNC(=O)/C=C/c1ccc(Cl)cc1 [Compound 25e, (2E,2′E)-N,N′-(Decane-1,10-Diyl)Bis(3-(4-Chlorophenyl)Acrylamide)] | > 20 µM | > 20 µM | > 20 µM | >357.14 | > 20 µM | > 20 µM | – | – | –
COc1ccc(/C=C/C(=O)NCCCCCCCCCCNC(=O)/C=C/c2ccc(OC)c(O)c2)cc1O [Compound 26e, (2E,2′E)-N,N′-(Decane-1,10-Diyl)Bis(3-(3-Hydroxy-4-Methoxyphenyl)Acrylamide)] | > 20 µM | > 20 µM | > 20 µM | – | > 20 µM | > 20 µM | > 20000 nM | – | –
COc1ccc(/C=C/C(=O)NCCCCCCCCCCNC(=O)/C=C/c2ccc(OC)c(OC)c2)cc1OC [Compound 27e, (2E,2′E)-N,N′-(Decane-1,10-Diyl)Bis(3-(3,4-Dimethoxyphenyl)Acrylamide)] | > 20 µM | > 20 µM | > 20 µM | >4.33 | > 20 µM | > 20 µM | 4620 ± 539 nM | – | –
COc1cc(/C=C/C(=O)NCCCCCCCCCCNC(=O)/C=C/c2cc(OC)c(O)c(OC)c2)cc(OC)c1O [Compound 28e, (2E,2′E)-N,N′-(Decane-1,10-Diyl)Bis(3-(4-Hydroxy-3,5-Dimethoxyphenyl)Acrylamide)] | > 20 µM | > 20 µM | > 20 µM | – | > 20 µM | > 20 µM | > 20000 nM | – | –
COc1cc(/C=C/C(=O)NCCCCCCCCCCNC(=O)/C=C/c2cc(OC)c(OC)c(OC)c2)cc(OC)c1OC [Compound 29e, (2E,2′E)-N,N′-(Decane-1,10-Diyl)Bis(3-(3,4,5-Trimethoxyphenyl)Acrylamide)] | > 20 µM | > 20 µM | > 20 µM | >3.95 | > 20 µM | > 20 µM | 5070 ± 461 nM | – | –
Nc1ccccc1C(=O)NCCCCCCCCCCNC(=O)c1ccccc1N [Compound 30e, N,N′-(Decane-1,10-Diyl)Bis(2-Aminobenzamide)] | > 20 µM | > 20 µM | > 20 µM | – | > 20 µM | > 20 µM | > 20000 nM | – | –
Nc1ccc(C(=O)NCCCCCCCCCCNC(=O)c2ccc(N)cc2)cc1 [Compound 31e, N,N′-(Decane-1,10-Diyl)Bis(4-Aminobenzamide)] | > 20 µM | > 20 µM | > 20 µM | >3.58 | > 20 µM | > 20 µM | 5590 ± 628 nM | – | –
